Measurements taken from US20230099344A1, “COMPOUNDS AND METHODS FOR THE TARGETED DEGRADATION OF IRAK-4” (Arvinas Operations, Inc., priority 2021, published 2023).

target: T1, IRAK-4 (Homo sapiens, UniProt Q9NWZ3); assay: IRAK-4 ELISA, PBMC degradation; type: cell-based; set-up: endogenous in cells; host or cells: PBMC; conditions: treated overnight
T1 sequence (Q9NWZ3 1-460): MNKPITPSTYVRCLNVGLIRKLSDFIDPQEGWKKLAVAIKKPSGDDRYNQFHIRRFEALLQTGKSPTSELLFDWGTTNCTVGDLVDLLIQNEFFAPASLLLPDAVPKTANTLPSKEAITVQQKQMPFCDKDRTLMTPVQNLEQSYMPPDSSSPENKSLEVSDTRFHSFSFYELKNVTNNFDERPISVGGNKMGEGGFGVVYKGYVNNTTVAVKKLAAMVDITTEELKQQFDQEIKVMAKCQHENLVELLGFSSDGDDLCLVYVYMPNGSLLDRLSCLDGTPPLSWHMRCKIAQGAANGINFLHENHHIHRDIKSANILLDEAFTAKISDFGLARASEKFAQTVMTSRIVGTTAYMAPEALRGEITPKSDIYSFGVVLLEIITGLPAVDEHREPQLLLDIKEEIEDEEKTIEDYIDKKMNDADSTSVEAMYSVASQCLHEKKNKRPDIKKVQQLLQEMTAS
In short: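 OCI-Ly10 cells (1×10^6/ml) or PBMC (2×10^6/ml) treated with compound on the day of seeding and incubated overnight. IRAK-4 protein remaining in cell lysates quantified by sandwich ELISA.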

Row | SMILES | DC50 [nM] | Dmax [%] | PBMC DC90
1 | CC(C)Oc1cc2nn(C[C@@H](F)C3CCN(CC4(F)CN(c5ccc6c(c5)C(=O)N(C5CCC(=O)NC5=O)C6=O)C4)CC3)cc2cc1NC(=O)c1cnn2cccnc12 (stereo partly drawn) [Example 414] | 1 to 5 | 80 to 90 | B (B represents a DC90 value ≥10.0 nM and <25.0 nM)
2 | O=C1CCC(N2C(=O)c3cc(F)c(N4CC(CN5CCC(n6cc7cc(NC(=O)c8cnn9cccnc89)c(OCC8CC8)cc7n6)CC5)C4)cc3C2=O)C(=O)N1 (stereo not drawn) [Example 221] | 1 to 5 | < 70 | B (B represents a DC90 value ≥10.0 nM and <25.0 nM)
3 | CC(C)Oc1cc2c(cc1NC(=O)c1cnn3cccnc13)CN(C[C@@H](F)C1CN(CC3CCN(c4ccc5c(c4)CN(C4CCC(=O)NC4=O)C5=O)CC3)C1)C2=O (stereo partly drawn) [Example 17] | < 1 | 80 to 90 | A (A represents a DC90 value <10.0 nM)
4 | CC(C)Oc1cc2c(cc1NC(=O)c1cnn3cccnc13)CN(C1CCN(CCN(C)c3ccc4c(c3)C(=O)N(C3CCC(=O)NC3=O)C4=O)CC1)C2=O (stereo not drawn) [Example 75] | 1 to 5 | ≥ 90 | B (B represents a DC90 value ≥10.0 nM and <25.0 nM)
5 | O=C1CCC(N2C(=O)c3ccc(N4CCC5(CCC(CN6CCC(n7cc8cc(NC(=O)c9cnn%10cccnc9%10)c(OCC9CC9)cc8n7)CC6)CC5)CC4)cc3C2=O)C(=O)N1 (stereo not drawn) [Example 247] | 1 to 5 | ≥ 90 | B (B represents a DC90 value ≥10.0 nM and <25.0 nM)
6 | CCOc1cc2nn(C3CCN(CC4(F)CN(c5ccc6c(c5)C(=O)N(C5CCC(=O)NC5=O)C6=O)C4)CC3)cc2cc1NC(=O)c1cnn2cccnc12 (stereo not drawn) [Example 195] | 1 to 5 | ≥ 90 | B (B represents a DC90 value ≥10.0 nM and <25.0 nM)
7 | CC(C)Oc1cc2c(cc1NC(=O)c1cnn3cccnc13)CN(C1CCN(CC3(F)CN(c4cccc5c4n(C)c(=O)n5C4CCC(=O)NC4=O)C3)CC1)C2=O (stereo not drawn) [Example 385] | < 1 | ≥ 90 | A (A represents a DC90 value <10.0 nM)
8 | CN(CC1(F)CN(c2ccc3c(c2)C(=O)N(C2CCC(=O)NC2=O)C3=O)C1)[C@H]1CC[C@H](n2cc3cc(NC(=O)c4cnn5cccnc45)c(OCC4CC4)cc3n2)CC1 (stereo partly drawn) [Example 350] | 1 to 5 | 70 to 80 | B (B represents a DC90 value ≥10.0 nM and <25.0 nM)
9 | O=C1CCC(N2C(=O)c3ccc(N4CC(F)(CN5CCC(N6Cc7cc(NC(=O)c8cnn9cccnc89)c(C8CC8)cc7C6=O)CC5)C4)cc3C2=O)C(=O)N1 (stereo not drawn) [Example 100] | 1 to 5 | ≥ 90 | B (B represents a DC90 value ≥10.0 nM and <25.0 nM)
10 | O=C1CCC(N2C(=O)c3ccc(N4CC(N5CCC(N6Cc7cc(NC(=O)c8cnn9cccnc89)c(N8CCOCC8)nc7C6=O)CC5)C4)cc3C2=O)C(=O)N1 (stereo not drawn) [Example 407] | < 1 | ≥ 90 | A (A represents a DC90 value <10.0 nM)
11 | CC(C)Oc1cc2c(cc1NC(=O)c1cnn3cccnc13)CN(C1CCN(C[C@@H]3CCN(c4ccc5c(c4)C(=O)N(C4CCC(=O)NC4=O)C5=O)C3)CC1)C2=O (stereo partly drawn) [Example 80] | 1 to 5 | ≥ 90 | A (A represents a DC90 value <10.0 nM)
12 | CN(C1CCC(n2cc3cc(NC(=O)c4cnn5cccnc45)c(OCC4CC4)cc3n2)CC1)C1CCN(c2ccc3c(c2)C(=O)N(C2CCC(=O)NC2=O)C3)CC1 (stereo not drawn) [Example 354] | < 1 | 70 to 80 | D (D represents a DC90 value ≥50 nM)
13 | O=C1CCC(N2Cc3cc(N4CC(F)(CN5CCC(n6cc7cc(NC(=O)c8cnn9cccnc89)c(OC8CCC8)cc7n6)CC5)C4)ccc3C2=O)C(=O)N1 (stereo not drawn) [Example 214] | < 1 | 70 to 80 | A (A represents a DC90 value <10.0 nM)
14 | O=C1CCC(N2C(=O)c3ccc(N4CC(F)(CN5CCC(n6cc7cc(NC(=O)c8cnn9cccnc89)c(OC8CCCC8)cc7n6)CC5)C4)cc3C2=O)C(=O)N1 (stereo not drawn) [Example 198] | 5 to 10 | ≥ 90 | B (B represents a DC90 value ≥10.0 nM and <25.0 nM)
15 | CC(C)Oc1cc2c(cc1NC(=O)c1cnn3cccnc13)CN(C1CCC(N(C)C3CCN(c4ccc5c(c4)C(=O)N(C4CCC(=O)NC4=O)C5=O)CC3)CC1)C2=O (stereo not drawn) [Example 316] | < 1 | ≥ 90 | A (A represents a DC90 value <10.0 nM)
16 | CN(C1CN(c2ccc3c(c2)C(=O)N(C2CCC(=O)NC2=O)C3=O)C1)[C@H]1CC[C@H](n2cc3cc(NC(=O)c4cnn5cccnc45)c(C4CC4)cc3n2)CC1 (stereo partly drawn) [Example 343] | < 1 | ≥ 90 | A (A represents a DC90 value <10.0 nM)
17 | O=C1CCC(N2C(=O)c3ccc(N4CC5(CCC(N6CCC(n7cc8cc(NC(=O)c9cnn%10cccnc9%10)c(OCC9CC9)cc8n7)CC6)CC5)C4)cc3C2=O)C(=O)N1 (stereo not drawn) [Example 227] | 1 to 5 | 80 to 90 | A (A represents a DC90 value <10.0 nM)

Other lines, results leading:

Row | DC50 [nM] | Dmax [%] | PBMC DC90 | SMILES
18 | ≥ 10 | 80 to 90 | D (D represents a DC90 value ≥50 nM) | O=C1CCC(N2C(=O)c3ccc(N4CC(N(CC(F)(F)F)C5CCC(n6cc7cc(NC(=O)c8cnn9cccnc89)c(OCC8CC8)cc7n6)CC5)C4)cc3C2=O)C(=O)N1 (stereo not drawn) [Example 327]
19 | ≥ 10 | < 70 | D (D represents a DC90 value ≥50 nM) | O=C1CCC(N2C(=O)c3cccc(N4CC(F)(CN5CCC(n6cc7cc(NC(=O)c8cnn9cccnc89)c(OCC8CC8)cc7n6)CC5)C4)c3C2=O)C(=O)N1 (stereo not drawn) [Example 270, N-(6-(cyclopropylmethoxy)-2-(1-((1-(2-(2,6-dioxopiperidin-3-yl)-1,3-dioxoisoindolin-4-yl)-3-fluoroazetidin-3-yl)methyl)piperidin-4-yl)-2H-indazol-5-yl)pyrazolo[1,5-a]pyrimidine-3-carboxamide]
20 | ≥ 10 | 80 to 90 | 3 nM | CC(C)Oc1cc2c(cc1NC(=O)c1cnn3cccnc13)CN(C1CCN(CCOc3ccc4c(c3)CN(C3CCC(=O)NC3=O)C4=O)CC1)C2=O (stereo not drawn) [Example 3]
21 | 1 to 5 | 80 to 90 | A (A represents a DC90 value <10.0 nM) | COc1cc(N2CC(F)(CN3CCC(n4cc5cc(NC(=O)c6cnn7cccnc67)c(OCC6CC6)cc5n4)CC3)C2)cc2c1C(=O)N(C1CCC(=O)NC1=O)C2 (stereo not drawn) [Example 242]
22 | < 1 | ≥ 90 | A (A represents a DC90 value <10.0 nM) | O=C1CCC(N2C(=O)c3ccc(N4CCC(N5CCC(n6cc7cc(NC(=O)c8cnn9cccnc89)c(OCC8CC8)cc7n6)CC5)CC4)cc3C2=O)C(=O)N1 (stereo not drawn) [Example 170]
23 | < 1 | ≥ 90 | A (A represents a DC90 value <10.0 nM) | CN(C1CCN(c2ccc3c(c2)C(=O)N(C2CCC(=O)NC2=O)C3=O)CC1)[C@H]1CC[C@H](n2cc3cc(NC(=O)c4cnn5cccnc45)c(C4CC4)cc3n2)CC1 (stereo partly drawn) [Example 344]
24 | < 1 | ≥ 90 | A (A represents a DC90 value <10.0 nM) | O=C1CCC(N2C(=O)c3ccc(N4CCC(CN5CCC(N6Cc7cc(NC(=O)c8cnn9cccnc89)c(OC8CC8)cc7C6=O)CC5)CC4)cc3C2=O)C(=O)N1 (stereo not drawn) [Example 27]
25 | 1 to 5 | ≥ 90 | A (A represents a DC90 value <10.0 nM) | CN(CC1(C)CCN(c2ccc3c(c2)C(=O)N(C2CCC(=O)NC2=O)C3=O)CC1)C1CCC(n2cc3cc(NC(=O)c4cnn5cccnc45)c(OCC4CC4)cc3n2)CC1 (stereo not drawn) [Example 356]
26 | < 1 | ≥ 90 | A (A represents a DC90 value <10.0 nM) | CCN(C1CCC(N2Cc3cc(NC(=O)c4cnn5cccnc45)c(OC(C)C)cc3C2=O)CC1)C1CN(c2ccc3c(c2)CN(C2CCC(=O)NC2=O)C3=O)C1 (stereo not drawn) [Example 330]
27 | < 1 | ≥ 90 | A (A represents a DC90 value <10.0 nM) | O=C1CCC(N2C(=O)c3ccc(N4CCC(COCCN5Cc6cc(NC(=O)c7cnn8cccnc78)c(N7CCOCC7)cc6C5=O)CC4)cc3C2=O)C(=O)N1 (stereo not drawn) [Example 95]
28 | < 1 | ≥ 90 | A (A represents a DC90 value <10.0 nM) | CN(C1CCC(N2Cc3cc(NC(=O)c4cnn5cccnc45)c(OC4CC4)cc3C2=O)CC1)C1CCN(c2ccc3c(c2)C(=O)N(C2CCC(=O)NC2=O)C3=O)CC1 (stereo not drawn) [Example 342]
29 | < 1 | ≥ 90 | A (A represents a DC90 value <10.0 nM) | CC(C)Oc1cc2c(cc1NC(=O)c1cnn3cccnc13)CN([C@H]1CC[C@H](N3CC4(CN(c5ccc6c(c5)CN(C5CCC(=O)NC5=O)C6=O)C4)C3)CC1)C2=O (stereo partly drawn) [Example 284]
30 | < 1 | 80 to 90 | A (A represents a DC90 value <10.0 nM) | COc1cc(N2CC(F)(CN3CCC(n4cc5cc(NC(=O)c6cnn7cccnc67)c(OC(C)C)cc5n4)CC3)C2)cc2c1C(=O)N(C1CCC(=O)NC1=O)C2=O (stereo not drawn) [Example 217]
